Reference: patent US6818665B2, “Treatment of obstructive sleep apnea” (priority 2003, dated 2004)

Tested on: OSA patients
Assay: oximeter tests / sleeping registration of OSA patients
Assay type: in vivo
Excerpt: The medical treatment of OSA must be effective, inexpensive and without any side effects because it must be ongoing for the rest of the patient's life during the sleeping period regardless of the time of the day or night. By conducting regular oximeter tests in connection with the fitting of mechanical assistance, it has been concluded that anti-oxidants, such as tokoferole, has some effect. Hormones that govern the sleep initiation during for example, jet lag, such melatonin that is formed in a gland from the amino-acid tryptophane with serotonin as an intermediate step. […] The corresponding effect has been noticed when the intake has stopped and this effect is normally quicker.
DHEA prevents unwanted complete or total (100%) relaxation of the muscles in the throat region caused melatonin. […] ACTH may be used to increase the production of DHEA. Melatonin may be taken as tablets and lasts about 24 hours. Preferably, melatonin is taken at night. A suitable melatonin dose may be about 0.5-5 mg. DHEA may also be taken as tablets and lasts about 24 hours. Preferably, DHEA is taken in the morning. A suitable DHEA dose may be about 1-5 mg. Of course, melatonin and DHEA may be administered at other times of the day.

COc1ccc2[nH]cc(CCNC(C)=O)c2c1 [melatonin, 5-metoxy-N-acetyletryptamine]
effect on the sleeping registration of OSA patients (number of desaturations and level of SpO2 reduction below 90%) (low dose 0.5-5 mg depending on age, 10-80 years): distinct effect
time to optimal effect (regular intake): after a couple of weeks

tokoferole
effect in regular oximeter tests (anti-oxidants, oximeter tests in connection with the fitting of mechanical assistance): some effect

C[C@]12CC[C@H](O)CC1=CC[C@@H]1[C@@H]2CC[C@]2(C)C(=O)CC[C@@H]12 [DHEA, dehydroepiandrosterone]
effect of parallel intake on the desired effect (reduced desaturations and SpO2 reduction) (parallel intake with melatonin, especially in combination with ACTH): synergistic increase of the desired effect
